Reference: patent publication US12697748B2, “Wood treatment compositions having antimicrobial properties” (Société en Commandite Prolam, priority 2022, dated 2026)

How the values were obtained:
Type in all cases: cell-based
[1] = system: Staphylococcus aureus ATCC 6538; assay: Growth inhibition zone of treated wood pieces on TSA nutrient gel; conditions: 24 h at 36° C.
Experimental: (§1) Cubic pieces of Maplewood of about 3 mm of thickness with a surface of about 1 cm^2 were provided. For Sample A, the pieces were heated on a heating plate at 230° C. for about 45 seconds, and dipped into the tannin solution for about 25 seconds, again heated on the heating plate for about 45 seconds and dipped in paraffin at 65° C. for about 25 seconds. For Sample B, the pieces were heated on a heating plate for about 45 seconds, and dipped into the tannin solution for about 25 seconds. The impregnation rate was calculated to be around 645 g/m^2 (60 g/pi^2).
(§2) The growth inhibition for Escherichia coli ATCC 11229 and Staphylococcus aureus ATCC 6538 was first determined. A culture of each microorganism was spread at the surface of Tryptic Soy agar (TSA) nutrient gel. Treated wood was cut into cubic pieces of about 3 mm of thickness with a surface of about 1 cm^2, as prepared above. Each piece was deposited on the nutrient gel, treated face down, contacting the gel, and using two pieces for each microorganism. The petri dishes containing the nutrient gel were closed and incubated for 24 h at 36° C. Sterile filters moistened with demineralized water and with a mercury chloride 0.018 mol/L solution were used and tested as negative and positive controls, respectively. After the incubation period, the growth inhibition zone was measured, and the incubation pursued for three (3) additional days to evaluate the growth under the wooden cubes after the prolonged incubation.
(§3) Cubic pieces of Maplewood of about 1 cm of thickness with a surface of about […] were provided. For Samples 1 and 2, the pieces were heated on a heating plate at 230° C. for about 45 seconds, and dipped into the tannin solution for about 25 seconds, again heated on the heating plate for about 45 seconds and dipped in paraffin at 65° C. for about 25 seconds. For Samples 4 and 5, the pieces were heated on a heating plate for about 45 seconds, and dipped into the tannin solution for about 25 seconds. The impregnation rate was calculated to be around 301 g/m^2 (28 g/pi^2). […]

[2] = system: Escherichia coli ATCC 11229; assay: as above; conditions: 24 h at 36° C., listed as Negative control
Experimental: as §1, §2, §3

[3] = system: Escherichia coli ATCC 11229; assay: Qualitative antibacterial effect, inhibition zone after 48 h (Example 6); conditions: filter (diameter 10 mm)
Experimental: Cubic pieces of Maplewood of about 1 cm of thickness with a surface of about […] were provided. For Sample Y, the pieces were heated on a heating plate at 230° C. for about 45 seconds, and dipped into the tannin solution for about 25 seconds, again heated on the heating plate for about 45 seconds and dipped in paraffin at 65° C. for about 25 seconds. For Sample X, the pieces were heated on a heating plate for about 45 seconds, and dipped into the tannin solution for about 25 seconds.
After the above impregnation, manual vaporization of the Tanac Weibull™ solution was also conducted. Samples X and Y were sprayed five times each, with 24 h between each spray.
The growth inhibition for Escherichia coli ATCC 11229 was determined. A culture of the microorganism was spread at the surface of Tryptic Soy agar (TSA) nutrient gel. Treated wood cubic pieces of about 3 mm of thickness with a surface of about 1 cm^2, as prepared above. The wooden pieces of Sample X (duplicated) were then rehumidified with water, Sample Y was not rehumidified and two Samples Z (no treated) were used: as is and rehumidified. Each piece was deposited on the nutrient gel, treated face down, contacting the gel. […] After the incubation period, the growth inhibition zone was measured and the incubation pursued at 48 h to evaluate the growth under the wooden cubes after the prolonged incubation.

## [Cl][Hg][Cl] [Positive control, mercury chloride]
[1]
  Diameter of the inhibition zone: 32 mm
[1]; listed as Negative control
  Diameter of the inhibition zone: 25 mm
[2]
  Diameter of the inhibition zone: 23 mm
[3]
  Diameter of the inhibition zone after 48 h: 22 mm
